From patent publication US6010721A, “Glycyrrhetinic-acid-like factor” (The Miriam Hospital, priority 1996, dated 2000)
“Also recorded” adds a separate entry of the source.

Legend:
[1] = target: T1, 11β-hydroxysteroid dehydrogenase (11β-OHSD) (Rattus norvegicus, UniProt P16232); test: Screening of endogenous substances for inhibition of 11β-OHSD (Example III); format: biochemical; conditions: endogenous substances screened
Excerpt: (§1) Various endogenous substances which bear similar structural resemblances to glycyrrhetinic acid (GA) were screened for inhibitory activity against 11β-hydroxysteroid dehydrogenase (11β-OHSD) and 5β-reductase (5β-R).

[2] = target: T2, 5β-reductase (5β-R) (Rattus norvegicus, UniProt P31210); test: Screening of endogenous substances for inhibition of 5β-reductase (Example III); format: biochemical; conditions: endogenous substances screened
T2 construct: [3H]-aldosterone reduction with NADPH
T2 sequence (P31210 1-326): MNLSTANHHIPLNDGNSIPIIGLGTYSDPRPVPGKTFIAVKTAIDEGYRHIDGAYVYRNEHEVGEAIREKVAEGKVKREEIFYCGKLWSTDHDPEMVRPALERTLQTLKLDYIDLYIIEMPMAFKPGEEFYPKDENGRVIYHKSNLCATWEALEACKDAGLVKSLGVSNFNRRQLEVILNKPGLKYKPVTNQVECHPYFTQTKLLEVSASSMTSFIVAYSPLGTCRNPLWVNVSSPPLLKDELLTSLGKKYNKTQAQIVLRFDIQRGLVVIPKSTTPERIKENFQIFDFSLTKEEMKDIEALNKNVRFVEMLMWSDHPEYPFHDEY
Excerpt: as §1

[3] = test system: adrenalectomized rats; test: Mineralocorticoid action conferred upon corticosterone in adrenalectomized rats (Example III); format: in vivo
Procedure: 3α,5β-THDOC and bile acids were also treated to determine whether, like GA, they could confer mineralocorticoid (MC) actions upon corticosterone.

[4] = test system: steroid 5β-reductase; conditions: incubated with enzyme; cited from earlier work
[5] = target: T1, 11β-hydroxysteroid dehydrogenase (11β-OHSD); conditions: incubated with enzyme; cited from earlier work
[6] = test system: adrenalectomized male rats; conditions: cited from earlier work

T1 sequence (P16232 whole entry): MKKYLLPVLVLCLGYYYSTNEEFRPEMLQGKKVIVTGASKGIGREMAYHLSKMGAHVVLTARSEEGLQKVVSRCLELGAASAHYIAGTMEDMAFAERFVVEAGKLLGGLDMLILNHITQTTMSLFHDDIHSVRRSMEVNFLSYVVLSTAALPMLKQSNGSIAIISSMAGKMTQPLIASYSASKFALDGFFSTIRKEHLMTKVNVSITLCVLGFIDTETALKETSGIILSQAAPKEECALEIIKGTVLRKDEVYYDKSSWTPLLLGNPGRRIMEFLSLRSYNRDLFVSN

SMILES	inhibition of 11β-OHSD (potency in words) [1]	inhibition of 5β-R (potency in words) [2]	other results
C[C@]12CC[C@@H](O)C[C@H]1CC[C@@H]1[C@@H]2CC[C@]2(C)[C@@H](C(=O)CO)CC[C@@H]12 [3α,5β-THDOC, 3α,5β-tetrahydrodeoxycorticosterone]	most potent inhibitor; also recorded: inhibit both 11β-OHSD and 5β-R activity	most potent inhibitor; also recorded: inhibit both 11β-OHSD and 5β-R activity	
C[C@H](CCC(=O)O)[C@H]1CC[C@H]2[C@@H]3[C@H](O)C[C@@H]4C[C@H](O)CC[C@]4(C)[C@H]3C[C@H](O)[C@]12C [CA, cholic acid]	moderate inhibitor	weak inhibitors	
C[C@H](CCC(=O)O)[C@H]1CC[C@H]2[C@@H]3[C@H](O)C[C@@H]4C[C@H](O)CC[C@]4(C)[C@H]3CC[C@]12C [CDCA, chenodeoxycholic acid]	most potent inhibitor; also recorded: inhibit both 11β-OHSD and 5β-R activity	most potent inhibitor; also recorded: inhibit both 11β-OHSD and 5β-R activity	antinatriuresis caused by corticosterone after pretreatment ([3]; adrenalectomized rats pretreated with CDCA, then corticosterone): significant antinatriuresis
C[C@H](CCC(=O)O)[C@H]1CC[C@H]2[C@@H]3CC[C@@H]4C[C@H](O)CC[C@]4(C)[C@H]3C[C@H](O)[C@]12C [DCA, deoxycholic acid]	weak inhibitor	moderate inhibitor	
CC1(C)[C@@H](O)CC[C@]2(C)[C@H]3C(=O)C=C4[C@@H]5C[C@@](C)(C(=O)O)CC[C@]5(C)CC[C@@]4(C)[C@]3(C)CC[C@@H]12 [Glycyrrhetinic Acid]			inhibition of steroid 5β-reductase [4]: markedly inhibit; inhibition of 11β-OHSD [5]: markedly inhibit
C[C@H](CCC(=O)O)[C@H]1CC[C@H]2[C@@H]3CC[C@@H]4C[C@H](O)CC[C@]4(C)[C@H]3CC[C@]12C [LCA, lithocholic acid]	potent inhibitor; also recorded: inhibit both 11β-OHSD and 5β-R activity	weak inhibitors; also recorded: inhibit both 11β-OHSD and 5β-R activity	
CCC[C@@H]1CC2=CC(=O)CC[C@]2(C)[C@H]2CC[C@@]3(C)[C@@H](CC[C@@]3(O)CCC(=O)O)[C@H]12 [RU28318, reference compound]			effect of antimineralocorticoid on the CDCA/corticosterone antinatriuresis ([3]; adrenalectomized rats, CDCA + corticosterone): blocked
CC1(C)[C@@H](OC(=O)CCC(=O)O)CC[C@]2(C)[C@H]3C(=O)C=C4[C@@H]5C[C@@](C)(C(=O)O)CC[C@]5(C)CC[C@@]4(C)[C@]3(C)CC[C@@H]12 [carbenoxolone sodium]			effect on Na^+ retaining properties of aldosterone and deoxycorticosterone [6]: amplified the Na^+ retaining properties; effect on glucocorticoids corticosterone and cortisol [6]: display minearlocorticoid like activity
